Reference: US20080120733A1, “Rnai-Based Method for Selecting Transfected Eukaryotic Cells” (GBF-GESELLSCHAFT FUR BIOTECHNOLOGISCHE FORSCHUNG, priority 2004, published 2008)

Key:
[1] = test system: APRT; test: Effect of selection media on wild type, APRT-RNAi and APRT knock out cells (survival / cell death); type: cell-based; conditions: for Effect of selection medium on cells: RNAi: cells expressing RNAi-constructs directed against APRT; for Effect of selection medium on cells: knock out: cells with APRT inactivated on the chromosomal level; for Effect of selection medium on cells: wild type: gene APRT; for all read-outs here: key: Survival of the cells in the respective selective conditions is marked +; cell death in the respective selective condition is marked −
[2] = test system: HPRT; test: Effect of selection media on wild type, HPRT-RNAi and HPRT knock out cells (survival / cell death); type: cell-based; conditions: for Effect of selection medium on cells: RNAi: cells expressing RNAi-constructs directed against HPRT; for Effect of selection medium on cells: knock out: cells with HPRT inactivated on the chromosomal level; for Effect of selection medium on cells: wild type: gene HPRT
[3] = test system: thymidine kinase; test: Effect of selection media on wild type, thymidine kinase-RNAi and thymidine kinase knock out cells (survival / cell death); type: cell-based; conditions: for Effect of selection medium on cells: RNAi: cells expressing RNAi-constructs directed against thymidine kinase; for Effect of selection medium on cells: knock out: cells with thymidine kinase inactivated on the chromosomal level; for Effect of selection medium on cells: wild type: gene thymidine kinase; for all read-outs here: key: Survival of the cells in the respective selective conditions is marked +; cell death in the respective selective condition is marked −
[4] = test system: DHFR

## Nc1nc(F)nc2nc[nH]c12 [2-fluoroadenine]
[1]
  Effect of selection medium on cells: RNAi: +
  Effect of selection medium on cells: knock out: +
  Effect of selection medium on cells: wild type: −

## Nc1nc2c(ncn2[C@@H]2O[C@H](CO)[C@@H](O)[C@H]2O)c(=S)[nH]1 [6-thioguanosine]
[2]
  Effect of selection medium on cells: RNAi: +
  Effect of selection medium on cells: knock out: +
  Effect of selection medium on cells: wild type: −

## Nc1ncnc2nn[nH]c12 [8-azaadenine]
[1]
  Effect of selection medium on cells: RNAi: +
  Effect of selection medium on cells: knock out: +
  Effect of selection medium on cells: wild type: −

## Nc1nc2c(nnn2[C@@H]2O[C@H](CO)[C@@H](O)[C@H]2O)c(=O)[nH]1 [8-azaguanosine]
[2]
  Effect of selection medium on cells: RNAi: +
  Effect of selection medium on cells: knock out: +
  Effect of selection medium on cells: wild type: −

## O=c1[nH]c(=O)n([C@H]2C[C@H](O)[C@@H](CO)O2)cc1Br [bromodesoxyuridine]
[3]
  Effect of selection medium on cells: RNAi: +
  Effect of selection medium on cells: knock out: +
  Effect of selection medium on cells: wild type: −

## Nc1nc(N)c2nc[nH]c2n1 [diaminopurine]
[1]
  Effect of selection medium on cells: RNAi: +
  Effect of selection medium on cells: knock out: +
  Effect of selection medium on cells: wild type: −

## CN(Cc1cnc2nc(N)nc(N)c2n1)c1ccc(C(=O)N[C@@H](CCC(=O)O)C(=O)O)cc1 [methotrexate]
[4]; cells expressing RNAi-constructs directed against DHFR
  Effect of selection medium on cells: RNAi: −
[4]; cells with DHFR inactivated on the chromosomal level
  Effect of selection medium on cells: knock out: −
[4]; wild type cells, gene DHFR
  Effect of selection medium on cells: wild type: +

## O=c1[nH]c(=O)n([C@H]2C[C@H](O)[C@@H](CO)O2)cc1C(F)(F)F [trifuorothymidine]
[3]
  Effect of selection medium on cells: RNAi: +
  Effect of selection medium on cells: knock out: +
  Effect of selection medium on cells: wild type: −
